Structures can show the parent of a compound that is named as a salt.
What was measured:
[1] = biological target: T1, human cloned 5-HT6 receptors (Homo sapiens, UniProt P50406); experiment: 5-HT6 binding affinity, [3H]-LSD displacement on membranes of Hela cells expressing human cloned 5-HT6 receptors; conditions: [3H]-LSD 3.0 nM, Hela cell membranes, 120 min at room temperature
T1 construct: expressed in transfected cells; host or cells: Hela cells
Protocol: Comparative Evaluation of 5-HT6 Binding Affinity of Test Compounds
The affinity of test compounds for the serotonin 5-HT6 receptor is evaluated in the following manner. Cultured Hela cells expressing human cloned 5-HT6 receptors are harvested and centrifuged at low speed (1,000×g) for 10.0 min to remove the culture media. The harvested cells are suspended in half volume of fresh physiological phosphate buffered saline solution and recentrifuged at the same speed. This operation is repeated. The collected cells are then homogenized in ten volumes of 50 mM Tris.HCl (pH 7.4) and 0.5 mM EDTA. The homogenate is centrifuged at 40,000×g for 30.0 min and the precipitate is collected. The obtained pellet is resuspended in 10 volumes of Tris.HCl buffer and recentrifuged at the same speed. The final pellet is suspended in a small volume of Tris.HCl buffer and the tissue protein content is determined in aliquots of 10-25 μl volumes. Bovine Serum Albumin is used as the standard in the protein determination according to the method described in Lowry et al., J. Biol. Chem., 193:265 (1951). The volume of the suspended cell membranes is adjusted to give a tissue protein concentration of 1.0 mg/ml of suspension. The prepared membrane suspension (10 times concentrated) is aliquoted in 1.0 ml volumes and stored at −70° C. until used in subsequent binding experiments.
The reaction is allowed to proceed in the dark for 120 min at room temperature, at which time, the bound ligand-receptor complex is filtered off on a 96 well unifilter with a Packard Filtermate® 196 Harvester. The bound complex caught on the filter disk is allowed to air dry and the radioactivity is measured in a Packard TopCount® equipped with six photomultiplier detectors, after the addition of 40.0 μl Microscint®-20 scintillant to each shallow well. The unifilter plate is heat-sealed and counted in a PackardTopCount® with a tritium efficiency of 31.0%.
Binding in the presence of varying concentrations of test compound is expressed as a percentage of specific binding in the absence of test compound. The results are plotted as log % bound versus log concentration of test compound. […] A linear regression line of data points is plotted, from which the IC50 value is determined and the Ki value is determined based upon the following equation: […]
where L is the concentration of the radioactive ligand used and KD is the dissociation constant of the ligand for the receptor, both expressed in nM.

T1 sequence (P50406 whole entry): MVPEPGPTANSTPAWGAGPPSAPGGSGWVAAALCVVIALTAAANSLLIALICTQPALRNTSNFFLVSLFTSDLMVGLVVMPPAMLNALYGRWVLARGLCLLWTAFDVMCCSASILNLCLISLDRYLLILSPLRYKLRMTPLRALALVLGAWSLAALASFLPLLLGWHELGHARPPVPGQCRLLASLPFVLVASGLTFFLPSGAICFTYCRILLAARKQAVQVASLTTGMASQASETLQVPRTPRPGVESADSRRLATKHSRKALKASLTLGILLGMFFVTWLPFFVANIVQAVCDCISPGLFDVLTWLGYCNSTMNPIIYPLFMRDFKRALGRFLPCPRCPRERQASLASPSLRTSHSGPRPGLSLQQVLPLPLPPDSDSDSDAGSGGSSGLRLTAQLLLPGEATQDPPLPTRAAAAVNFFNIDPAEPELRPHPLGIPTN

Compound: C/C(=N\NC(=N)N)c1c(C)cn(S(=O)(=O)c2ccccc2)c1C [Example 13, 2-{(E)-1-[2,4-Dimethyl-1-(phenylsulfonyl)-1H-pyrrol-3-yl]ethylidine} hydrazinecarboximidamide Hydrochloride]
- Ki [1]: 6 nM

Compound: C/C(=N\NC(=N)N)c1ccn(S(=O)(=O)c2sc(N)nc2C)c1 (as salt: hydrochloride) [Example 19, 2-((E)-1-{1-[(2-amino-4-methyl-1,3-thiazol-5-yl)sulfonyl]-1H-pyrrol-3-yl}ethylidene)-1-hydrazinecarboximidamide]
- melting point: 225 °C (dec.)

Compound: C/C(=N\NC(=N)N)c1ccn(S(=O)(=O)c2ccccc2)c1 [Example 14, 2-{(E)-1-[1-(phenylsulfonyl)-1H-pyrrol-3-yl]ethylidene}hydrazinecarboximidamide]
- Ki [1]: 1.5 nM

Compound: C/C(=N\NC(=N)N)c1ccn(S(=O)(=O)c2sc3ccc(Cl)cc3c2C)c1 [Example 17]
- Ki [1]: 32 nM

Compound: C/C(=N\NC(=N)N)c1ccn(S(=O)(=O)c2sc3ccc(Cl)cc3c2C)c1 (as salt: hydrochloride) [Example 17]
- melting point: 285 °C (dec.)

Compound: N=C(N)N/N=C1\CCCc2c1ccn2S(=O)(=O)c1ccccc1 [Example 7, 2-[1-(Phenylsulfonyl)-1,5,6,7-tetrahydro-4H-indol-4-ylidine]-1-hydrazinecarboximidamide Hydrochloride]
- Ki [1]: 37 nM

Compound: C/C(=N\NC(=N)N)c1ccn(S(=O)(=O)c2ccccc2)c1 (as salt: hydrochloride) [Example 14, 2-{(E)-1-[1-(phenylsulfonyl)-1H-pyrrol-3-yl]ethylidene}hydrazinecarboximidamide]
- melting point: 220 to 221 °C

Compound: C/C(=N\NC(=N)N)c1ccn(S(=O)(=O)c2ccc(N)cc2)c1 (as salt: hydrochloride) [Example 18, 2-((E)-1-{1-[(4-aminophenyl)sulfonyl]-1H-pyrrol-3-yl}ethylidene)-1-hydrazine-carboximidamide]
- melting point: 198 to 200 °C

Compound: 2-{(E)-1-[1-(naphthylsulfonyl)-1H-pyrrol-3-yl]ethylidene}-1-hydrazine-carboximidamide [Example 16]
- Ki [1]: 2 nM

Compound: C/C(=N\NC(=N)N)c1ccn(S(=O)(=O)c2sc(N)nc2C)c1 [Example 19, 2-((E)-1-{1-[(2-amino-4-methyl-1,3-thiazol-5-yl)sulfonyl]-1H-pyrrol-3-yl}ethylidene)-1-hydrazinecarboximidamide]
- Ki [1]: 3.75 nM

Compound: C/C(=N\NC(=N)N)c1ccn(S(=O)(=O)c2ccc(C)cc2)c1 [Example 15, 2-{(E)-1-[1-(4-methylphenylsulfonyl)-1H-pyrrol-3-yl]ethylidene}hydrazine-carboximidamide]
- Ki [1]: 5.5 nM

Compound: C/C(=N\NC(=N)N)c1ccn(S(=O)(=O)c2ccc(C)cc2)c1 (as salt: hydrochloride) [Example 15, 2-{(E)-1-[1-(4-methylphenylsulfonyl)-1H-pyrrol-3-yl]ethylidene}hydrazine-carboximidamide]
- melting point: 277 to 279 °C

Compound: C/C(=N\NC(=N)N)c1ccn(S(=O)(=O)c2ccc(N)cc2)c1 [Example 18, 2-((E)-1-{1-[(4-aminophenyl)sulfonyl]-1H-pyrrol-3-yl}ethylidene)-1-hydrazine-carboximidamide]
- Ki [1]: 0.6 nM

From US6727270B2, “Pyrrolylalkylidene-hydrazinecarboximidamide derivatives as 5-hydroxytryptamine-6 ligands” (Wyeth, priority 2002, dated 2004)
